Where “and” joins values, the source holds several entries; their conditions need not be identical. Identical values can stand only once. Entries after “also recorded” stand apart in the source; their conditions may differ. Like-named read-outs stand apart in the source and are kept apart here. Marks after values point to notes of the source that are not given here.
What was measured:
human CB1 receptor [1] = biological target: T1, human CB1 receptor (Homo sapiens, UniProt P21554); experiment: cAMP accumulation assay, CHO cells expressing CB1; assay type: cell-based
human CB2 receptor [2] = biological target: T2, human CB2 receptor (Homo sapiens, UniProt P34972); experiment: cAMP accumulation assay, CHO cells expressing CB2; assay type: cell-based; conditions: for functional property at CB2 (agonist/antagonist): in words, standard ligands partly from the literature
human GPR18 [3] = biological target: T3, human GPR18 (Homo sapiens, UniProt Q14330); conditions: for functional property at GPR18 (agonist/antagonist): in words; for agonist effect on β-arrestin recruitment at GPR18: test compound 10 µM, related to effect of Δ9-THC 10 µM = 100%
T3 sequence (Q14330 1-331): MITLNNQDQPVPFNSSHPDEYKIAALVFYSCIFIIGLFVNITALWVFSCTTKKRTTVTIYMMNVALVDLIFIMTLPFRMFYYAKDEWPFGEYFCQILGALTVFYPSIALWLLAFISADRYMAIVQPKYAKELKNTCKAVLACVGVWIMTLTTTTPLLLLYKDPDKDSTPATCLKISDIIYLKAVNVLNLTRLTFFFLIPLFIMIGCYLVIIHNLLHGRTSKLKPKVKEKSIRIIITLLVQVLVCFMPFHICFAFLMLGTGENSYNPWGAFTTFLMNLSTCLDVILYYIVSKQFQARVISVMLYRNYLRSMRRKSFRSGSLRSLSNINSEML

human GPR18 [4] = biological target: T3, human GPR18; experiment: cell-based; conditions: for inhibition at 10 µM: CHO, read-out: % inhibition of Δ9-THC (10 µM)-induced β-arrestin recruitment at GPR18, test compound at 10 µM; for IC50: GPR18 IC50, β-arrestin recruitment, antagonist mode vs. Δ9-THC (10 µM)
human GPR55 = human GPR55 (Homo sapiens, UniProt Q9Y2T6); experiment: β-arrestin recruitment assay (PathHunter), CHO cells expressing GPR55; conditions: for inhibition at 10 µM: CHO; for IC50: GPR55 IC50, β-arrestin recruitment, antagonist mode vs. LPI (1 µM); for functional property at GPR55 (agonist/antagonist): in words; for agonist effect on β-arrestin recruitment at GPR55: test compound 10 µM, related to effect of LPI 1 µM = 100%
human CB1 receptor [5] = biological target: T1, human CB1 receptor; experiment: biochemical; assay type: binding; conditions: for Ki: membranes of CHO cells expressing human CB1, three independent experiments in duplicates, read-out: Ki CB1, heterologous competition vs. [3H]CP55,940; for increase in CB1 receptor affinity compared to the unmethylated parent biphenyl: 60a vs 60, 61a vs 61
human CB2 receptor [6] = biological target: T2, human CB2 receptor; experiment: Radioligand binding (heterologous competition) vs. [3H]CP55,940 at CB2; conditions: for Ki: three independent experiments in duplicates
[7] = read-out: % inhibition of LPI (1 µM)-induced β-arrestin recruitment at GPR55
[8] = in words, standard ligands partly from the literature
[9] = read-out: % inhibition of LPI (1 µM)-induced β-arrestin recruitment at GPR55, test compound at 10 µM
[10] = Ki CB2, heterologous competition vs. [3H]CP55,940, membranes of CHO cells expressing human CB2
[11] = inhibition of forskolin-stimulated cAMP, CHO-hCB1, read-out: EC50 CB1, cAMP accumulation assay
[12] = membranes of CHO cells expressing human CB2, read-out: Ki CB2, heterologous competition vs. [3H]CP55,940
[13] = at 10 µM, compared to max. effect of full agonist CP55,940 (1 µM) = 100%

human GPR55, sequence (Q9Y2T6 whole entry): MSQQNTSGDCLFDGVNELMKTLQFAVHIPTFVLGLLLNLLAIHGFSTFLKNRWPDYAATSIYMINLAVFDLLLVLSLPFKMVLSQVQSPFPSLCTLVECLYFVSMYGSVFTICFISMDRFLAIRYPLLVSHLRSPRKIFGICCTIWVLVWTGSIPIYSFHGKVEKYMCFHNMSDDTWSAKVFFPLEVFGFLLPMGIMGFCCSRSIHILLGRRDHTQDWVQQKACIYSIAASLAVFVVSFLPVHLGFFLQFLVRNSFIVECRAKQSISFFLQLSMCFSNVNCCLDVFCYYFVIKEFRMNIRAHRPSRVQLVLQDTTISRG
T1 sequence (P21554 whole entry): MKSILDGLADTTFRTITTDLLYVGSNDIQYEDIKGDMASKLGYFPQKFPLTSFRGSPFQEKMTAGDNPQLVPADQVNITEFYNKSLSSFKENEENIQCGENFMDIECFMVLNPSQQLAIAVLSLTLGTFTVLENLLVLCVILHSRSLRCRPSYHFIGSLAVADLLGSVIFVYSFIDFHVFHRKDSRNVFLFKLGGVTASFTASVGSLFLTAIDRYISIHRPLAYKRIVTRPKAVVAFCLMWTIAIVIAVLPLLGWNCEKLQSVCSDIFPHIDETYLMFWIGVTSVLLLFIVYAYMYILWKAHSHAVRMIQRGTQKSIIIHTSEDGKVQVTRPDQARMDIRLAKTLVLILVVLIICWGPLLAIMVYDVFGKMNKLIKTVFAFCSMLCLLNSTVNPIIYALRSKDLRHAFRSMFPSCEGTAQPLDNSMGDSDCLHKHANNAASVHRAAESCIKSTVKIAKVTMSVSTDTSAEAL
T2 sequence (P34972 whole entry): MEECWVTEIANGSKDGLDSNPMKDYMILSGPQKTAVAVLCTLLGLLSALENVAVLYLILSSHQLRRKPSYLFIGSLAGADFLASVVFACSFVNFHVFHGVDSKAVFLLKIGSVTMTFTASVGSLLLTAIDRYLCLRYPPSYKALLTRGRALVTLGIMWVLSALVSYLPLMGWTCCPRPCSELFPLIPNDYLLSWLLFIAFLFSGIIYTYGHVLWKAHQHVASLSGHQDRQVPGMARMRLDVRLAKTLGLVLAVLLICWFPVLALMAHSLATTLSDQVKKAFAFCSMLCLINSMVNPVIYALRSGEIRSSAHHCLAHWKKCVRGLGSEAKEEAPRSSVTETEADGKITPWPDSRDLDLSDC

Row | Compound | functional property at CB2 (agonist/antagonist) (human CB2 receptor [2]) | functional property at GPR18 (agonist/antagonist) (human GPR18 [3]) | agonist effect on β-arrestin recruitment at GPR18 (human GPR18 [3]) [%] | EC50 (human GPR18 [4]) [µM] | inhibition at 10 µM (human GPR18 [4]) [%] | IC50 (human GPR18 [4]) | EC50 (human GPR55) [µM] | inhibition at 10 µM (human GPR55; [7]) [%] | IC50 (human GPR55) | functional property at GPR55 (agonist/antagonist) (human GPR55) | agonist effect on β-arrestin recruitment at GPR55 (human GPR55) [%] | functional property at CB1 (agonist/antagonist) (human CB1 receptor [1]; [8]) | inhibition at 10 µM (human GPR55; [9]) [%] | Ki (human CB1 receptor [5]) [µM] | Ki (human CB2 receptor [6]; [10]) [µM] | EC50 (human CB2 receptor [2]) [µM] | EC50 (human CB1 receptor [1]) [µM] | further results
1 | CCCCCCC(C)(C)c1ccc(C2CC(O)CCC2CCCO)c(O)c1 (single isomer, unassigned; (-)) [Compound 4, (-)-cis-3-[2-hydroxy-4-(1,1-dimethylheptyl)phenyl]-trans-4-(3-hydroxypropyl)cyclohexanol, reference compound] | agonist | inverse agonistic activity; also recorded: antagonist | 0 | > 10 | 188 | 5.99 ± 1.88 µM | > 10 | 93 | 1.61 ± 0.47 µM | antagonistic activity; also recorded: antagonist | 4 |  |  |  |  |  |  | functional property at CB1 (agonist/antagonist) (human CB1 receptor [1]): agonist
2 | COc1ccc(-c2oc3cc(OC)ccc3c2C(=O)c2ccc(C#N)cc2)cc1 [Compound 6, reference compound] | antagonist | antagonist | 0 | > 10 | 81 | 4.97 ± 1.51 µM | > 10 |  | 4.14 ± 1.05 µM | antagonist | 0 | antagonist | 81 |  |  |  |  | 
3 | COc1ccc(C(=O)c2c(C)n(CCN3CCOCC3)c3cc(I)ccc23)cc1 [Compound 7, reference compound] | antagonist | antagonist | 0 | > 10 | 52 | ~10 µM | > 10 | 48 | ≥ 10 µM | antagonist | 22 | agonist |  |  |  |  |  | 
4 | CCCc1ccc(O)c(-c2cc(CCC)ccc2O)c1 [Compound 12, tetrahydromagnolol] | agonist | antagonist | 0 | > 10 | 64 | 30.9 ± 15.8 µM | > 10 | 96 | 13.2 ± 4 µM | antagonist | 24 | agonist |  |  |  |  |  | 
5 | CCCc1ccc(O)c(-c2cc(CCC)ccc2OC)c1 [Compound 12a, methoxytetrahydromagnolol] | Full agonists; also recorded: agonist | antagonist | 26 | > 10 | 41 | ~10 µM | > 10 | 82 | 4.55 ± 1.08 µM | antagonist | 0 | Full agonists; also recorded: agonist |  | 0.267 ± 0.058 | 0.221 ± 0.057 | 0.0778 ± 0.0205 |  | EC50 (human CB1 receptor [1]; [11]): 0.622 ± 0.284 µM
6 | CCCCc1ccc(O)c(-c2cc(CCCC)ccc2O)c1 [Compound 43] |  |  | 0 | > 10 | 74 | 12 ± 1.4 µM | > 10 |  | > 10 µM |  | 29 |  | 0 | 2.7 ± 1.2 |  | 0.378 ± 0.148 | 7.11 ± 1.43 | Ki (human CB2 receptor [6]; [12]): 1.59 ± 0.04 µM
7 | CCCCCc1ccc(O)c(-c2cc(CCCCC)ccc2O)c1 [Compound 44] |  |  | 0 | > 10 | 128 | 12 ± 2.7 µM | > 10 |  | > 10 µM |  | 26 |  | 2 | 3.13 ± 1.13 |  | 2.3 ± 0.71 | 4.54 ± 0.83 | Ki (human CB2 receptor [6]; [12]): 0.833 ± 0.123 µM
8 | CCCCCc1ccc(O)c(-c2cc(CCC)ccc2O)c1 [Compound 60, 5-Pentyl-5′-propylbiphenyl-2,2′-diol] | partial agonists; also recorded: almost full efficacy; also recorded: agonist | antagonist | 0 | > 10 | 118 | 14.5 ± 2.8 µM | > 10 |  | > 10 µM and ~10 µM | antagonist | 28 | full agonistic effects; also recorded: full agonists; also recorded: agonist | 45 | 0.362 ± 0.113 | 0.0371 ± 0.0078 | 0.258 ± 0.013 | 0.971 ± 0.089 | 
9 | CCCCCc1ccc(O)c(-c2cc(CCC)ccc2OC)c1 [Compound 60a, 2-(2-methoxy-5-propyl-phenyl)-4-pentylphenol] | Full agonists; also recorded: agonist | antagonist | 22 | > 10 | 47 | > 10 µM and ~10 µM | > 10 | 66 | 6.93 ± 1.06 µM | antagonist | 0 | Full agonists; also recorded: agonist |  | 0.0173 ± 0.0014 | 0.031 ± 0.0099 | 0.0399 ± 0.01 |  | increase in CB1 receptor affinity compared to the unmethylated parent biphenyl (human CB1 receptor [5]): 21 fold; EC50 (human CB1 receptor [1]; [11]): 0.0375 ± 0.0056 µM
10 | CCCCCCc1ccc(O)c(-c2cc(CCC)ccc2O)c1 [Compound 61, 5-Hexyl-5′-propylbiphenyl-2,2′-diol] | almost full efficacy; also recorded: partial agonists; also recorded: agonist | antagonist | 0 | > 10 | 139 | ~10.4 µM and 10.4 µM | > 10 |  | > 10 µM and ~10 µM | antagonist | 32 | full agonistic effects; also recorded: full agonists; also recorded: agonist | 45 | 0.145 ± 0.048 | 0.0294 ± 0.009 | 0.159 ± 0.018 | 0.829 ± 0.278 | selectivity for CB1 versus GPR18 (human GPR18 [3]; Ki CB1 vs estimated GPR18 IC50): approximately 70 fold; selectivity for CB2 versus GPR18 (human GPR18 [3]; Ki CB2 vs estimated GPR18 IC50): ~350 fold
11 | CCCCCCc1ccc(O)c(-c2cc(CCC)ccc2OC)c1 [Compound 61a, 5-Hexyl-2′-methoxy-5′-propylbiphenyl-2-ol] | Full agonists; also recorded: agonist | antagonist | 0 | > 10 | 30 | > 10 µM | > 10 | 58 | ~10 µM | antagonist | 0 | Full agonists; also recorded: agonist |  | 0.00957 ± 0.00543 | 0.0238 ± 0.0071 | 0.0385 ± 0.017 |  | increase in CB1 receptor affinity of 61a compared to isomer 61b (human CB1 receptor [5]): 33 fold; increase in CB1 receptor affinity compared to the unmethylated parent biphenyl (human CB1 receptor [5]): 15 fold; increase in CB2 receptor affinity of 61a compared to isomer 61b (human CB2 receptor [6]): 12 fold; EC50 (human CB1 receptor [1]; [11]): 0.159 ± 0.076 µM
12 | CCCCCCCc1ccc(O)c(-c2cc(CCC)ccc2O)c1 [Compound 62] |  |  | 0 | > 10 | 123 | 10.6 ± 0.4 µM | > 10 |  | > 10 µM |  | 5 |  | 17 |  |  |  |  | efficacy CB1, cAMP accumulation assay (human CB1 receptor [1]; [13]): (110%)^b; efficacy CB2, cAMP accumulation assay (human CB2 receptor [2]; [13]): (57%)^b
